Laboratory results: article PMC5959751 (Biochemical pharmacology, 2018)
Several values for one entry are separate records, joined by “and”; a condition that tells them apart may be missing. Equal entries are not always repeated. Where two headings read alike, the source gives them in different places.

Key:
hA3 receptor [1] = biological target: T1, hA3 receptor (Homo sapiens, UniProt P0DMS8); test: Radioligand equilibrium displacement assay with [3H]PSB-11 on CHOhA3 membranes; assay type: binding; conditions: no GTP; for pKi / Ki: 10 °C, 240 min, [3H]PSB-11, CHO cell membranes; for pKi: ± SEM
T1 sequence (P0DMS8 1-318): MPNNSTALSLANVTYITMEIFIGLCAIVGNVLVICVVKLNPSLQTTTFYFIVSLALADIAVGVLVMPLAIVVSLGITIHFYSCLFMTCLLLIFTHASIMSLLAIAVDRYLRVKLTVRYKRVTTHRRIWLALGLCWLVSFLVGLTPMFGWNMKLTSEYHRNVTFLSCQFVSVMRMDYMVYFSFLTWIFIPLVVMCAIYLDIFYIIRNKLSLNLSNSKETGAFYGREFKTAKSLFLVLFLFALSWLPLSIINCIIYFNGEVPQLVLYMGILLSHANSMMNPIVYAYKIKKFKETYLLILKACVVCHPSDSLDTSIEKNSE

hA3 receptor [2] = biological target: T1, hA3 receptor; test: Competition association assay with [3H]PSB-11; assay type: binding; conditions: no GTP; for koff / kon: 10 °C, ± SEM; for RT (residence time): RT = 1/(60*koff); for mean pKD (kinetic): from KD = koff/kon; for Kd: read-out: Kinetic KD, KD = koff/kon
hA3 receptor [3] = biological target: T1, hA3 receptor; test: Dual-point competition association assay with [3H]PSB-11; assay type: binding; conditions: no GTP; t1 20 min, t2 240 min; agonist at IC50; 10 °C
pain models = conditions: five-day period; daily injection or implanted mini-pump; rat; cited from earlier work

Compound	pKi (hA3 receptor [1])	Ki (hA3 receptor [1]; read-out: mean Ki)	koff (hA3 receptor [2])	kon (hA3 receptor [2])	RT (residence time) (hA3 receptor [2])	mean pKD (kinetic) (hA3 receptor [2])	Kd (hA3 receptor [2])	further results
CNC(=O)[C@H]1O[C@@H](n2cnc3c(N)ncnc32)[C@H](O)[C@@H]1O [MECA, 5′-N-methylcarboxamidoadenosine, reference compound]	7.4 ± 0.04	42 nM	–	–	–	–	–	KRI (Kinetic Rate Index) (hA3 receptor [3]): 1.24 and 1.24 ± 0.09
CNC(=O)C12CC1C(n1cnc3c(NC)nc(C#Cc4ccc(-c5ccccc5)cc4)nc31)C(O)C2O (stereo not shown) [MRS5667]	8.3 ± 0.05	4.6 nM	(1.1 ± 0.3) × 10^-5 s^-1	(1.8 ± 0.3) × 10^5 M^-1 s^-1	1563 ± 464 min	10.2	0.058 ± 0.02 nM	–
CNC(=O)[C@@]12C[C@@H]1[C@@H](n1cnc3c(NC)cc(C#Cc4ccc(Cl)s4)nc31)[C@H](O)[C@@H]2O [MRS7140]	8.3 ± 0.08	5.2 nM	(8.5 ± 0.3) × 10^-5 s^-1	(3.2 ± 1.2) × 10^5 M^-1 s^-1	196 ± 8 min	9.6	0.27 ± 0.1 nM	–
CNC(=O)C12CC1C(n1cnc3c(NCc4cccc(Cl)c4)nc(C#Cc4ccccc4)nc31)C(O)C2O (stereo not shown) [MRS5655]	8.5 ± 0.09	3.6 nM	(1.8 ± 0.3) × 10^-5 s^-1	(4.0 ± 0.8) × 10^5 M^-1 s^-1	909 ± 165 min	10.3	0.046 ± 0.013 nM	–
OC[C@H]1O[C@@H](n2cnc3c(Nc4ccc(I)cc4)ncnc32)[C@H](O)[C@@H]1O [LUF5506]	7.6 ± 0.08	29 nM	–	–	–	–	–	–
CNC(=O)[C@@]12C[C@@H]1[C@@H](n1cnc3c(NCc4cccc(Cl)c4)nc(C#Cc4ccc(F)c(F)c4)nc31)[C@H](O)[C@@H]2O [MRS5698]	–	–	–	–	–	–	–	efficacy on prolonged exposure in in vivo pain models (pain models): maintained full efficacy
CNC(=O)[C@H]1O[C@@H](n2cnc3c(NCc4cccc(I)c4)ncnc32)[C@H](O)[C@@H]1O [IB-MECA, 1-deoxy-1-[6-[((3-Iodophenyl)methyl)amino]-9H-purin-9-yl]-N-methyl-β-D-ribofuranuronamide, reference compound]	–	–	–	–	–	–	–	Hill Slope (hA3 receptor [1]; displacement curves): -0.94 ± 0.05 ^ns
OC[C@H]1O[C@@H](n2cnc3c(Nc4cccc(Cl)c4)ncnc32)[C@H](O)[C@@H]1O [LUF5501]	7.5 ± 0.02	31 nM	(1.6 ± 0.2) × 10^-3 s^-1	(1.7 ± 0.2) × 10^5 M^-1 s^-1	10 ± 1.3 min	8.0	9.2 ± 1.4 nM	difference between kinetic pKD and pKi (hA3 receptor [2]; pKD higher than pKi): 0.5 log-unit

Now from value to compound, other results behind:

pKi (hA3 receptor [1])	Ki (hA3 receptor [1]; read-out: mean Ki)	koff (hA3 receptor [2])	kon (hA3 receptor [2])	RT (residence time) (hA3 receptor [2])	mean pKD (kinetic) (hA3 receptor [2])	Kd (hA3 receptor [2])	Compound	further results
8.7 ± 0.06	2.2 nM	(6.2 ± 1.2) × 10^-5 s^-1	(4.0 ± 0.7) × 10^5 M^-1 s^-1	270 ± 51 min	9.8	0.15 ± 0.04 nM	CCCNc1nc(C#Cc2ccc(Cl)s2)nc2c1ncn2[C@H]1[C@H](O)[C@H](O)[C@]2(C(=O)NC)C[C@H]12 [MRS7154]	–
–	618 nM	–	–	–	–	–	CNC(=O)C12CC1C(n1cnc3c(N(C)C)nc(C#Cc4ccc(Cl)s4)nc31)C(O)C2O (stereo not shown) [MRS7158]	–
7.3 ± 0.03	51 nM	–	–	–	–	–	OC[C@H]1O[C@@H](n2cnc3c(Nc4ccc(Cl)cc4)ncnc32)[C@H](O)[C@@H]1O [LUF5500]	KRI (Kinetic Rate Index) (hA3 receptor [3]): 0.98 (0.95; 1.01)
–	–	very slow	–	–	–	–	CNC(=O)[C@@]12C[C@@H]1[C@@H](n1cnc3c(NCc4cccc(Cl)c4)nc(C#Cc4ccc(-c5ccccc5)cc4)nc31)[C@H](O)[C@@H]2O [MRS5679]	Ki (hA3 receptor [1]; mean Ki): 82 nM
